Key:
Type in all cases: in vivo
Diabrotica balteata = Diabrotica balteata spray test (germinated wheat grains); settings: 168 h, application rate 100 g/ha (=32 μg/cavity), after 7 days, beetle larvae on wheat, 100% = all wheat plants grown as in untreated, uninfected control, read-out: efficacy in %
From the text: Diabrotica Balteata—Spray Test Solvent: 78 parts by weight of acetone • • 1.5 parts by weight of dimethylformamide Emulsifier: alkylaryl polyglycol ether An appropriate active ingredient formulation is produced by dissolving 1 part by weight of active ingredient with the stated parts by weight of solvent and making the solution up to the desired concentration with water containing an emulsifier concentration of 1000 ppm. Further test concentrations are produced by diluting the formulation with emulsifier-containing water. Pre-swollen wheat grains (Triticum aestivum) are incubated in a multiwell plate filled with agar and a little water for one day (5 seed grains per cavity). The germinated wheat grains are sprayed with an active ingredient formulation of the desired concentration. Subsequently, each cavity is infected with 10-20 beetle larvae of Diabrotica balteata. After 7 days, efficacy in % is determined. 100% means that all wheat plants have grown as in the untreated, uninfected control; 0% means that no wheat plant has grown.

Meloidogyne incognita = Meloidogyne incognita test (lettuce, gall formation); settings: application rate 20 ppm, after 14 days, 100% = no galls found
From the text: Meloidogyne Incognita Test Solvent: 125.0 parts by weight of acetone An appropriate active ingredient formulation is produced by mixing 1 part by weight of active ingredient with the stated amount of solvent and diluting the concentrate to the desired concentration with water. Vessels are filled with sand, active ingredient solution, an egg/larvae suspension of the southern root-knot nematode (Meloidogyne incognita) and lettuce seeds. The lettuce seeds germinate and the plants develop. The galls develop on the roots. After 14 days, the nematicidal efficacy in % is determined by the formation of galls. 100% means that no galls were found; 0% means that the number of galls on the treated plants corresponds to the untreated control.

Myzus persicae = Myzus persicae spray test (Chinese cabbage leaf disks); settings: application rate 100 g/ha, after 5 days, 100% = all aphids killed
From the text: (§1) Myzus persicae—Spray Test Solvent: 78 parts by weight of acetone • • 1.5 parts by weight of dimethylformamide Emulsifier: alkylaryl polyglycol ether An appropriate active ingredient formulation is produced by dissolving 1 part by weight of active ingredient with the stated parts by weight of solvent and making the solution up to the desired concentration with water containing an emulsifier concentration of 1000 ppm. Further test concentrations are produced by diluting the formulation with emulsifier-containing water. Leaf disks of Chinese cabbage (Brassica pekinensis) infested by all stages of the green peach aphid (Myzus persicae) are sprayed with an active ingredient formulation of the desired concentration. After 5 days, efficacy in % is determined. 100% means that all of the aphids have been killed; 0% means that none of the aphids have been killed.

Spodoptera frugiperda = Spodoptera frugiperda spray test (maize leaf disks); settings: foliar, 168 h, application rate 100 g/ha, caterpillars, after 7 days, 100% = all caterpillars killed, read-out: efficacy in %
From the text: Spodoptera frugiuerda—Spray Test
Solvent: 78.0 parts by weight of acetone • • 1.5 parts by weight of dimethylformamide
Emulsifier: alkylaryl polyglycol ether
An appropriate active ingredient formulation is produced by dissolving 1 part by weight of active ingredient with the stated parts by weight of solvent and making the solution up to the desired concentration with water containing an emulsifier concentration of 1000 ppm. Further test concentrations are produced by diluting the formulation with emulsifier-containing water.
Leaf disks of maize (Zea mays) are sprayed with an active ingredient formulation of the desired concentration and, after drying, populated with caterpillars of the fall armyworm (Spodopterafrugiperda).
After 7 days, efficacy in % is determined. 100% means that all of the caterpillars have been killed; 0% means that none of the caterpillars have been killed.

Nezara viridula = Nezara viridula spray test (barley plants); settings: 96 h, application rate 500 g/ha, larvae, after 4 days, 100% = all shield bugs killed, read-out: efficacy in %
From the text: as §1, with “Nezara viridula—Spray Test” for “Myzus persicae—Spray Test”, “Solvent: 78.0” for “Solvent: 78”, “water. Barley plants (Hordeum vulgare)” for “water. Leaf disks of Chinese cabbage (Brassica pekinensis) infested by all stages of the green peach aphid (Myzus persicae)”, “desired concentration and are infected with larvae of the Southern green shield bug (Nezara viridula).” for “desired concentration.”, “After 4” for “After 5”, “the shield bugs” for “the aphids”

Row | SMILES | pest or weed control at 100 g/ha (Diabrotica balteata) | nematicidal efficacy in % (formation of galls) (Meloidogyne incognita) | efficacy in % (Myzus persicae) | pest or weed control at 100 g/ha (Spodoptera frugiperda) | pest or weed control at 500 g/ha (Nezara viridula)
1 | CCS(=N)(=O)c1c(-c2nc3cc4c(cc3n2C)OC(F)(F)C(F)(F)O4)nc(-c2ccc(Cl)cc2)n1C (racemic) [Example I-34, rac-2-[2-(4-Chlorophenyl)-5-(ethylsulfonimidoyl)-1-methyl-1H-imidazol-4-yl]-6,6,7,7-tetrafluoro-1-methyl-6,7-dihydro-1H-[1,4]dioxino[2,3-f]benzimidazole] | 100% | 90% | 90% | 100% | –
2 | CCS(=O)(=O)c1c(-c2nc3cc4c(cc3n2C)OC(F)(F)C(F)(F)O4)nc(-n2cnc(C3CC3)n2)n1C [Example I-23, 2-[2-(3-Cyclopropyl-1H-1,2,4-triazol-1-yl)-5-(ethylsulfonyl)-1-methyl-1H-imidazol-4-yl]-6,6,7,7-tetrafluoro-1-methyl-6,7-dihydro-1H-[1,4]dioxino[2,3-f]benzimidazole] | 80% | – | – | 100% | 100%
3 | CCS(=N)(=O)c1c(-c2nc3cc4c(cc3n2C)OC(F)(F)C(F)(F)O4)nc(-c2ccc(C(F)(F)F)cc2)n1C (stereo not shown) [Example I-37] | 80% | 90% | – | 100% | –
4 | CCS(=O)(=O)c1c(-c2nc3cc4c(cc3n2C)OC(F)(F)C(F)(F)O4)nc(-c2cccc(C3(C#N)CC3)c2)n1C [Example I-36] | 100% | – | – | 100% | 90%
5 | CCS(=O)(=O)c1c(-c2nc3cc4c(cc3n2C)OC(F)(F)C(F)(F)O4)nc(-c2ccc(Cl)cc2)n1C [Example I-4, 2-[2-(4-Chlorophenyl)-5-(ethylsulfonyl)-1-methyl-1H-imidazol-4-yl]-6,6,7,7-tetrafluoro-1-methyl-6,7-dihydro-1H-[1,4]dioxino[2,3-f]benzimidazole] | 80% | 90% | – | 100% | –
6 | CCS(=O)(=O)c1c(-c2nc3cc4c(cc3n2C)OC(F)(F)C(F)(F)O4)nc(-c2ccc(Br)cc2)n1C [Example I-10, 2-[2-(4-Bromophenyl)-5-(ethylsulfonyl)-1-methyl-1H-imidazol-4-yl]-6,6,7,7-tetrafluoro-1-methyl-6,7-dihydro-1H-[1,4]dioxino[2,3-f]benzimidazole] | 100% | – | – | 100% | 100%
7 | CCS(=O)(=O)c1c(-c2nc3cc4c(cc3n2C)OC(F)(F)C(F)(F)O4)nc(-c2ccc(C3(C#N)CC3)cc2)n1C [Example I-6, 1-{4-[5-(Ethylsulfonyl)-1-methyl-4-(6,6,7,7-tetrafluoro-1-methyl-6,7-dihydro-1H-[1,4]dioxino[2,3-f]benzimidazol-2-yl)-1H-imidazol-2-yl]phenyl}cyclopropanecarbonitrile] | 100% | 100% | – | 100% | 100%
8 | CCS(=O)(=O)c1c(-c2nc3cc4c(cc3n2C)OC(F)(F)C(F)(F)O4)nc(-c2ccc(C3(F)CC3)cc2)n1C [Example I-11, 2-{5-(Ethylsulfonyl)-2-[4-(1-fluorocyclopropyl)phenyl]-1-methyl-1H-imidazol-4-yl}-6,6,7,7-tetrafluoro-1-methyl-6,7-dihydro-1H-[1,4]dioxino[2,3-f]benzimidazole] | 100% | – | – | 100% | 100%
9 | CCS(=O)(=O)c1c(-c2nc3cc4c(cc3n2C)OC(F)(F)C(F)(F)O4)nc(-c2ccc(Cl)s2)n1C [Example I-19, 2-[2-(5-Chloro-2-thienyl)-5-(ethylsulfonyl)-1-methyl-1H-imidazol-4-yl]-6,6,7,7-tetrafluoro-1-methyl-6,7-dihydro-1H-[1,4]dioxino[2,3-f]benzimidazole] | – | – | – | 100% | 100%
10 | CCS(=O)(=O)c1c(-c2nc3cc4c(cc3n2C)OC(F)(F)C(F)(F)O4)nc(-c2ccccc2)n1C [Example I-16, 2-[5-(Ethylsulfonyl)-1-methyl-2-phenyl-1H-imidazol-4-yl]-6,6,7,7-tetrafluoro-1-methyl-6,7-dihydro-1H-[1,4]dioxino[2,3-f]benzimidazole] | 100% | – | 90% | 100% | 100%
11 | CCS(=O)(=O)c1c(-c2nc3cc4c(cc3n2C)OC(F)(F)C(F)(F)O4)nc(-c2ccc(C3CC3)nc2)n1C [Example I-18, 2-[2-(6-Cyclopropylpyridin-3-yl)-5-(ethylsulfonyl)-1-methyl-1H-imidazol-4-yl]-6,6,7,7-tetrafluoro-1-methyl-6,7-dihydro-1H-[1,4]dioxino[2,3-f]benzimidazole] | 100% | – | – | 100% | 100%
12 | CCS(=O)(=O)c1c(-c2nc3cc4c(cc3n2C)OC(F)(F)C(F)(F)O4)nc(-c2ccc(Br)cn2)n1C [Example I-24, 2-[2-(5-Bromopyridin-2-yl)-5-(ethylsulfonyl)-1-methyl-1H-imidazol-4-yl]-6,6,7,7-tetrafluoro-1-methyl-6,7-dihydro-1H-[1,4]dioxino[2,3-f]benzimidazole] | 100% | – | – | 100% | 100%
13 | CCS(=N)(=O)c1c(-c2nc3cc4c(cc3n2C)OC(F)(F)C(F)(F)O4)nc(-c2ccc(F)cc2)n1C (stereo not shown) [Example I-38] | 100% | 100% | 90% | 100% | 90%
14 | CCS(=O)(=O)c1c(-c2nc3cc4c(cc3n2C)OC(F)(F)C(F)(F)O4)nc(-c2cccc(F)c2)n1C [Example I-14, 2-[5-(Ethylsulfonyl)-2-(3-fluorophenyl)-1-methyl-1H-imidazol-4-yl]-6,6,7,7-tetrafluoro-1-methyl-6,7-dihydro-1H-[1,4]dioxino[2,3-f]benzimidazole] | 100% | – | – | 100% | 90%
15 | CCS(=O)(=O)c1c(-c2nc3cc4c(cc3n2C)OC(F)(F)C(F)(F)O4)nc(-c2cccc(C3(F)CC3)c2)n1C [Example I-20, 2-{5-(Ethylsulfonyl)-2-[3-(1-fluorocyclopropyl)phenyl]-1-methyl-1H-imidazol-4-yl}-6,6,7,7-tetrafluoro-1-methyl-6,7-dihydro-1H-[1,4]dioxino[2,3-f]benzimidazole] | 100% | – | – | 100% | 90%
16 | CCS(=O)(=O)c1c(-c2nc3cc4c(cc3n2C)OC(F)(F)C(F)(F)O4)nc(-c2ccc(C(F)(F)F)cc2)n1C [Example I-15, 2-{5-(Ethylsulfonyl)-1-methyl-2-[4-(trifluoromethyl)phenyl]-1H-imidazol-4-yl}-6,6,7,7-tetrafluoro-1-methyl-6,7-dihydro-1H-[1,4]dioxino[2,3-f]benzimidazole] | 100% | – | – | 100% | 100%
